According to article PMC5562236, “Properties of Two Novel Esterases Identified from Culture Supernatant of Penicillium purpurogenum Grown on Sugar Beet Pulp” (Insights in enzyme research, 2016):

Test system: T1, FAET
T1 construct: full-length cDNA (introns removed) with own signal peptide in pPICZB, stop codon kept, no tag seen; secreted by Pichia pastoris GS115, culture supernatant, no purification described
Assay: pNP release at […] nm, microplate, recombinant P. pastoris culture supernatant
Format: biochemical, Talaromyces purpureogenus
Details: 100 mM sodium phosphate pH 5.8, 28 °C (general pNP assay)

Row | Km [µM] | SMILES
1 | 1400 | COc1cc(/C=C/C(=O)Oc2ccc([N+](=O)[O-])cc2)ccc1O [pNP-ferulate]
2 | 2300 | CC(=O)Oc1ccc([N+](=O)[O-])cc1 [pNP-acetate]
